Laboratory results: PubChem BioAssay (NCI)
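48-hour exposure; five concentrations; linearly interpolated endpoints. The concentration for 50% growth inhibition is given as GI50. TGI: total growth inhibition.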

Assays:
Assay in all cases: NCI tumour cell line growth inhibition, 48 h
[1] = test system: MDA-N
[2] = test system: DMS 114 small cell lung
[3] = test system: HOP-18 NSCLC
[4] = test system: M19-MEL melanoma
[5] = test system: RXF-631 renal
[6] = test system: XF 498 CNS
[7] = test system: DMS 273 small cell lung
[8] = test system: LXFL 529 NSCLC
[9] = test system: SNB-78 CNS
[10] = test system: P388 leukemia
[11] = test system: P388/ADR leukemia
[12] = test system: SN12K1 renal

OCC12C3C4C5C3C1C5C42 (stereo unspecified)
TGI [1]: > 100 µM

O=C(NC1CCCCC1)NS(=O)(=O)c1ccc2c(c1)CCC2
TGI [2]: > 100 µM
TGI [3]: > 100 µM
TGI [4]: > 100 µM
TGI [5]: > 100 µM
TGI [6]: > 100 µM

COc1cc2c(cc1C1COc3cc4occc4cc3C1=O)OCO2 (stereo unspecified)
TGI [1]: > 100 µM

Nc1nc(OCc2ccccc2)c2[nH]cnc2n1
TGI [2]: 191 µM
TGI [7]: 400 µM
TGI [3]: 335 µM
TGI [8]: 400 µM
TGI [4]: 400 µM
TGI [5]: 309 µM
TGI [9]: 400 µM

O=C1OC(=O)C(=C\c2ccc3c(c2)OCO3)/C1=C/c1ccc2c(c1)OCO2
TGI [1]: > 100 µM

CCN(CC)CC1c2ccccc2C(CNc2ccccc2)N1C (stereo unspecified)
TGI [2]: > 100 µM
TGI [7]: > 100 µM
TGI [8]: > 100 µM
TGI [4]: > 100 µM
TGI [5]: > 100 µM
TGI [9]: > 100 µM
TGI [6]: > 100 µM

N#CC(=C1C=CC(=NO)C=C1)c1ccc(Cl)cc1
TGI [2]: 31.5 µM
TGI [7]: > 100 µM
TGI [3]: > 100 µM
TGI [8]: 18 µM
TGI [4]: 46.9 µM

CC(=O)CN(Cc1cc(C)c2c(c1)c1ccccc1n2Cc1ccccc1)S(=O)(=O)c1ccc(C)cc1
TGI [2]: > 100 µM
TGI [7]: > 100 µM
TGI [3]: > 100 µM
TGI [8]: > 100 µM
TGI [4]: > 100 µM
TGI [5]: > 100 µM
TGI [9]: > 100 µM
TGI [6]: > 100 µM

CC(=O)Nc1ccc(C(O)/C(=N/N)c2nc3ccc(Cl)cc3[nH]c2=O)cc1 (stereo unspecified)
TGI [1]: > 100 µM

COC1C=COC2(C)Oc3c(C)c(O)c4c(c3C2=O)/C(=N/C2CCC(O)OC2C)C=C(NC(=O)/C(C)=C\C(=O)C2CC2C(O)C(C)C(O)C(C)C(OC(C)=O)C1C)C4=O (stereo unspecified)
TGI [1]: 3.83 µM

Cc1ccc2c(C3Cc4ccccc4N3C(=O)/C=C\C(=O)O)c(C)[nH]c2c1 (stereo unspecified)
TGI [2]: > 100 µM
TGI [7]: > 100 µM
TGI [8]: 42.9 µM
TGI [4]: > 100 µM
TGI [9]: 45.3 µM

Fc1ccc(C2SCc3nc4ccccc4n32)c(F)c1 (stereo unspecified)
TGI [2]: > 100 µM
TGI [7]: > 100 µM
TGI [3]: > 100 µM
TGI [4]: > 100 µM
TGI [5]: > 100 µM
TGI [9]: > 100 µM

O=C(/C=C/c1ccccc1)CCN1CCOCC1
TGI [2]: 23.9 µM
TGI [7]: 35.9 µM
TGI [3]: 32.2 µM
TGI [8]: 8.43 µM
TGI [4]: 28.3 µM
TGI [1]: 30.1 µM
TGI [10]: > 27.2 µM
TGI [11]: 7.76 µM
TGI [12]: 31 µM
TGI [9]: 47.3 µM
TGI [6]: 29.1 µM

COc1ccc(C=O)c([N+](=O)[O-])c1
TGI [2]: 66.9 µM
TGI [7]: 95.1 µM
TGI [3]: > 100 µM
TGI [4]: > 100 µM
TGI [5]: > 100 µM
TGI [9]: > 100 µM
TGI [6]: > 100 µM

CC#CCC1CCC(OCC)=CC1=O (stereo unspecified)
TGI [2]: > 100 µM
TGI [7]: > 100 µM
TGI [3]: > 100 µM
TGI [8]: > 100 µM
TGI [4]: > 100 µM
TGI [5]: > 100 µM
TGI [9]: > 100 µM
TGI [6]: > 100 µM

CC(=O)NC(CCCNC(=O)N(CCCl)N=O)C(=O)NCc1ccccc1 (stereo unspecified)
TGI [2]: > 100 µM
TGI [7]: > 100 µM
TGI [3]: > 100 µM
TGI [8]: > 100 µM
TGI [4]: > 100 µM
TGI [6]: > 100 µM

O=C(O)c1ccc(C(=O)c2ccccc2)c(C(=O)O)c1
TGI [1]: > 100 µM

Cc1ccc(-c2nnc(-c3nn(-c4ccccc4)c4nc5ccccc5nc34)o2)cc1
TGI [2]: 51.1 µM
TGI [7]: 65.1 µM
TGI [3]: 65.2 µM
TGI [8]: 35.7 µM
TGI [4]: > 100 µM
TGI [9]: > 100 µM
TGI [6]: 25.4 µM

NC(=O)c1csc(C2OC(CO)C(O)C2O)n1 (stereo unspecified)
TGI [2]: 3160 µM
TGI [7]: 9960 µM
TGI [3]: > 3980 µM
TGI [4]: > 5520 µM
GI50 [1]: 59.5 µM
TGI [1]: > 6490 µM
TGI [10]: 159 µM
TGI [11]: 84.1 µM
TGI [12]: > 9220 µM
TGI [9]: > 9480 µM
TGI [6]: 732 µM

O=C1OC(Cc2ccccc2)(N2CCCC2=O)C1c1ccccc1 (stereo unspecified)
TGI [2]: 81 µM
TGI [8]: > 100 µM
TGI [4]: > 100 µM
TGI [9]: > 100 µM
TGI [6]: 88.5 µM

CCOC(=O)C1C(=S)NC(=O)C1C#N (stereo unspecified)
TGI [2]: > 100 µM
TGI [7]: > 100 µM
TGI [3]: > 100 µM
TGI [8]: > 100 µM
TGI [4]: > 100 µM
TGI [5]: > 100 µM

O=C1NC(=O)C2C(=O)NC(=O)C1C2c1c(Cl)cccc1Cl (stereo unspecified)
TGI [2]: > 53.5 µM
TGI [7]: > 57.5 µM
TGI [3]: > 100 µM
TGI [8]: > 100 µM
TGI [5]: > 100 µM
TGI [9]: > 100 µM
TGI [6]: > 100 µM

O=[N+]([O-])c1ccc(C=Cc2ccccc2)cc1.[C-]#[O+].[C-]#[O+].[C-]#[O+].[Cr]
GI50 [1]: 7.25 µM
TGI [1]: > 100 µM

O=C(O)CN1CCN(CC(=O)O)CC(=O)[O][Hg][O]C(=O)C1
GI50 [1]: 16.7 µM
TGI [1]: 31.7 µM

O=C1CC(c2c[nH]c3ccccc23)C(=O)N1 (stereo unspecified)
TGI [7]: > 100 µM
TGI [8]: > 100 µM
TGI [4]: > 100 µM
TGI [5]: > 100 µM
TGI [9]: > 100 µM
TGI [6]: > 100 µM

CC(=O)Nc1ccc(SC#N)c2c(NC(C)=O)cccc12
TGI [2]: > 100 µM
TGI [7]: > 100 µM
TGI [3]: > 100 µM
TGI [8]: > 73 µM
TGI [4]: > 100 µM
TGI [5]: > 100 µM
TGI [9]: > 100 µM

CCCP1(=O)C=C(C)C(=C(Cl)Cl)C(C)=C1 (stereo unspecified)
TGI [2]: > 100 µM
TGI [3]: > 100 µM
TGI [8]: > 100 µM
TGI [4]: > 100 µM
TGI [9]: > 100 µM

COc1ccccc1-c1cc(=O)c2cc(C)cnc2[nH]1
GI50 [1]: 4.41 µM
TGI [1]: 24.9 µM

COc1cccc(OC)c1C(=O)OCc1ccccc1
TGI [2]: > 100 µM
TGI [8]: > 100 µM
TGI [4]: > 100 µM
TGI [6]: > 100 µM

O=C1c2ccccc2-c2cc([N+](=O)[O-])c([N+](=O)[O-])cc21
TGI [1]: 5.18 µM

NNC(=O)CS(=O)(=O)Nc1ncccn1
TGI [1]: > 100 µM

Clc1ccc(Nc2nc3ccccc3nc2-c2cccs2)cc1Cl
TGI [7]: > 100 µM
TGI [3]: > 100 µM
TGI [8]: > 100 µM
TGI [4]: > 100 µM
TGI [5]: > 100 µM
TGI [9]: > 100 µM
TGI [6]: > 100 µM

CC(=O)C(CN(CC(C)C)CC(C)C)C(c1ccccc1)c1c(O)c2ccccc2oc1=O (stereo unspecified)
TGI [2]: > 100 µM
TGI [8]: > 100 µM
TGI [4]: > 100 µM
TGI [5]: > 100 µM

COc1cc(C(=O)C/C(CCC(=O)Nc2ccccc2[N+](=O)[O-])=N\NC(N)=O)ccc1O
TGI [2]: > 100 µM
TGI [7]: > 100 µM
TGI [3]: > 100 µM
TGI [4]: > 100 µM
TGI [5]: > 100 µM
TGI [9]: > 100 µM
TGI [6]: > 100 µM

CCC(=O)C12OC3OC(C)(C)OC3C1OC(C)(C)O2 (stereo unspecified)
TGI [7]: > 100 µM
TGI [4]: > 100 µM
TGI [5]: > 100 µM
TGI [9]: > 100 µM
TGI [6]: > 100 µM

CC1(O)C=CC(=O)C=C1
TGI [2]: 32.3 µM
TGI [7]: 38.5 µM
TGI [3]: > 100 µM
TGI [8]: 26.4 µM
TGI [4]: 58.6 µM
TGI [9]: 97.2 µM
TGI [6]: > 65.1 µM

Cc1[nH]c2ccccc2c1C(=O)CC1(O)C(=O)Nc2c(Cl)cc(Cl)cc21 (stereo unspecified)
TGI [2]: 44.9 µM
TGI [7]: > 100 µM
TGI [3]: 85.6 µM
TGI [8]: 30.8 µM
TGI [4]: 24.6 µM
TGI [5]: > 100 µM
TGI [9]: > 100 µM
TGI [6]: 32.8 µM

CN(N=O)C(=O)ON1C(=O)CCC1=O
TGI [2]: > 100 µM
TGI [7]: > 100 µM
TGI [3]: > 100 µM
TGI [8]: > 100 µM
TGI [4]: > 100 µM
TGI [9]: > 100 µM

O=C1C(=C([O-])c2ccccc2)C(=O)c2ccccc21.O=C1C(=C([O-])c2ccccc2)C(=O)c2ccccc21.[Fe+2]
GI50 [3]: > 100 µM
TGI [3]: > 100 µM
GI50 [4]: > 100 µM
TGI [4]: > 100 µM

COC(=O)C1CC2CC(=NNC(N)=O)CC2C1 (stereo unspecified)
TGI [2]: > 100 µM
TGI [7]: > 100 µM
TGI [8]: > 100 µM
TGI [4]: > 100 µM
TGI [9]: > 100 µM
TGI [6]: > 100 µM
